In the supplement of paper PMC11061612:

Key:
[1] = compound: CC1=CN2[C@@H](C1)C=NC3=CC(=C(C=C3C2=O)OC)OCCCCCOC4=C(C=C5C(=C4)N=C[C@@H]6CC(=CN6C5=O)C)OC [SG3199]; conditions: max 0.001 µM
In short: (§1)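 Cancer cell lines were plated in 1536-well plates in 7.5 μl of DMEM/F12 or RPMI with 10% FBS and kept 24 hours at 37°C and 5% CO2 before 72 hours of dosing, with final DMSO typically 0.2%. CellTiter-Glo 2.0 luminescence measured viability, scaled between blank-well and DMSO-well means. Dose responses were fitted to a two-parameter logistic curve with a non-linear mixed effects model. This fit gives the single-agent IC50.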

[2] = compound: NC1(c2ccc(-c3nc4ccn5c(=O)[nH]nc5c4cc3-c3ccccc3)cc2)CCC1 [MK-2206]; conditions: max 10 µM
In short: as §1

[3] = compound: Cc1c2c(nn1C)CSCc1cc(n(C)n1)CSc1cc(c3ccccc3c1)OCCCc1c(C(=O)O)n(C)c3c-2c(Cl)ccc13 [AZD5991]; conditions: max 1 µM
In short: as §1

[4] = compound: Cc1cc2ncnn2cc1Nc1ncc2c(n1)n(C1CCOCC1)c(=O)n2C [AZD7648]; conditions: max 10 µM
In short: as §1

[5] = compound: CC1=C(C(=CC=C1)Cl)NC(=O)C2=CN=C(S2)NC3=CC(=NC(=N3)C)N4CCN(CC4)CCO [Dasatinib]; conditions: max 2 µM
In short: as §1

[6] = compound: O=c1[nH]cc(F)c(=O)[nH]1 [5-Fluorouracil]; conditions: max 20 µM
In short: as §1

[7] = compound: CC(C)n1c(=O)n(C)c2cnc3cc(F)c(-c4ccc(OCCCN5CCCCC5)nc4)cc3c21 [AZD1390]; conditions: max 0.3 µM
In short: as §1

[8] = compound: COc1cc([C@@H]2c3cc4c(cc3[C@@H](O[C@@H]3O[C@@H]5CO[C@@H](C)O[C@H]5[C@H](O)[C@H]3O)[C@H]3COC(=O)[C@H]23)OCO4)cc(OC)c1O [Etoposide]; conditions: max 10 µM
In short: as §1

[9] = compound: COc1nnc2ccc(N3CCC(c4ccc(OCCN5CCN(C)C(=O)[C@H]5C)cc4)CC3)nn12 [AZD5153]; conditions: max 1 µM
In short: as §1

[10] = compound: CC1(C)CCC(CN2CCN(c3ccc(C(=O)NS(=O)(=O)c4ccc(NCC5CCOCC5)c([N+](=O)[O-])c4)c(Oc4cnc5[nH]ccc5c4)c3)CC2)=C(c2ccc(Cl)cc2)C1 [Venetoclax]; conditions: max 1 µM
In short: as §1

[11] = compound: CC(=O)O[C@H]1C(=O)[C@@]2(C)[C@H]([C@H](OC(=O)c3ccccc3)[C@]3(O)C[C@H](OC(=O)[C@H](O)[C@@H](NC(=O)c4ccccc4)c4ccccc4)C(C)=C1C3(C)C)[C@]1(OC(C)=O)CO[C@@H]1C[C@@H]2O [Paclitaxel]; conditions: max 3 µM
In short: as §1

[12] = compound: COc1cccc2c1C(=O)c1c(O)c3c(c(O)c1C2=O)C[C@@](O)(C(=O)CO)C[C@@H]3O[C@H]1C[C@H](N)[C@H](O)[C@H](C)O1 [Doxorubicin]; conditions: max 1 µM
In short: as §1

[13] = compound: CCN(CCO)CCCOc1ccc2c(Nc3cc(CC(=O)Nc4cccc(F)c4)[nH]n3)ncnc2c1 [AZD2811]; conditions: max 1 µM
In short: as §1

[14] = compound: C[C@@H](Nc1cc(F)cc(F)c1)c1cc(C(=O)N(C)C)cc2c(=O)cc(N3CCOCC3)oc12 [AZD8186]; conditions: max 10 µM
In short: as §1

[15] = compound: COc1cccc(OCCCN)c1-c1cc(Nc2cnc(C#N)cn2)n[nH]1 [Prexasertib]; conditions: max 1 µM
In short: as §1

[16] = compound: C[C@@H]1COCCN1C2=NC(=NC(=C2)C3(CC3)[S@](=N)(=O)C)C4=C5C=CNC5=NC=C4 [AZD6738]; conditions: max 10 µM
In short: as §1

[17] = compound: Cc1nc(-c2cn3c(n2)-c2ccc(-c4cnn(C(C)(C)C(N)=O)c4)cc2OCC3)n(C(C)C)n1 [Taselisib]; conditions: max 10 µM
In short: as §1

[18] = compound: C[C@@H](Oc1cc(-c2cnn(C3CCNCC3)c2)cnc1N)c1c(Cl)ccc(F)c1Cl [Crizotinib]; conditions: max 10 µM
In short: as §1

[19] = compound: CN(C)CCCOc1ccc(-c2ccc3ncc4c(c3c2)n(C2CCOCC2)c(=O)n4C)cn1 [AZD0156]; conditions: max 3 µM
In short: as §1

[20] = compound: C=CCn1c(=O)c2cnc(Nc3ccc(N4CCN(C)CC4)cc3)nc2n1-c1cccc(C(C)(C)O)n1 [AZD1775]; conditions: max 3 µM
In short: as §1

[21] = compound: Cn1cnc2c(F)c(Nc3ccc(Br)cc3Cl)c(C(=O)NOCCO)cc21 [Selumetinib]; conditions: max 10 µM
In short: as §1

[22] = compound: COc1cc2ncnc(Nc3ccc(F)c(Cl)c3)c2cc1OCCCN1CCOCC1 [Gefitinib]; conditions: max 10 µM
In short: as §1

[23] = compound: O=C(Nc1ccc2[nH]nc(-c3ccncc3)c2c1)[C@@H]1CCN(CC(=O)N2CCN(c3ccc(-c4ncccn4)cc3)CC2)C1; conditions: max 5 µM
In short: as §1

[24] = compound: C[C@@H](c1ccc2nccn2c1)n1nnc2ncc(-c3cnn(C)c3)nc21 [Savolitinib]; conditions: max 1 µM
In short: as §1

[25] = compound: N#Cc1cnc(Nc2cc(NC[C@H]3CNCCO3)c(C(F)(F)F)cn2)cn1 [SRA737]; conditions: max 10 µM
In short: as §1

[26] = compound: O=C(c1cc(Cc2n[nH]c(=O)c3ccccc23)ccc1F)N1CCN(C(=O)C2CC2)CC1 [Olaparib]; conditions: max 10 µM
In short: as §1

[27] = compound: CCc1c2c(nc3ccc(O)cc13)-c1cc3c(c(=O)n1C2)COC(=O)[C@]3(O)CC [SN-38]; conditions: max 0.3 µM
In short: as §1

[28] = compound: COc1cc(Nc2ncc3c(n2)-c2ccc(Cl)cc2C(c2c(F)cccc2OC)=NC3)ccc1C(=O)O [Alisertib]; conditions: max 10 µM
In short: as §1

[29] = compound: Nc1ccn([C@@H]2O[C@H](CO)[C@@H](O)C2(F)F)c(=O)n1 [Gemcitabine]; conditions: max 0.3 µM
In short: as §1

[30] = compound: C1CN(CCC1(C(=O)N[C@@H](CCO)C2=CC=C(C=C2)Cl)N)C3=NC=NC4=C3C=CN4 [AZD5363]; conditions: max 10 µM
In short: as §1

[31] = compound: CC(=O)c1c(C)c2cnc(Nc3ccc(N4CCNCC4)cn3)nc2n(C2CCCC2)c1=O [Palbociclib]; conditions: max 10 µM
In short: as §1

[32] = compound: CN(CC[C@H](CSC1=CC=CC=C1)NC2=C(C=C(C=C2)S(=O)(=O)NC(=O)C3=CC=C(C=C3)N4CCC(CC4)[C@H](C5=CC=CC=C5C6=CC=C(C=C6)Cl)O)S(=O)(=O)C(F)(F)F)CCO [AZD4320]; conditions: max 1 µM
In short: as §1

[33] = compound: CS(=O)(=O)CCNCc1ccc(-c2ccc3ncnc(Nc4ccc(OCc5cccc(F)c5)c(Cl)c4)c3c2)o1 [Lapatinib]; conditions: max 10 µM
In short: as §1

[34] = compound: C1CC(C1)(C(=O)[O-])C(=O)[O-].N.N.[Pt+2] [Carboplatin]; conditions: max 10 µM
In short: as §1

[35] = compound: CC(=O)Nc1cccc(-n2c(=O)n(C3CC3)c(=O)c3c(Nc4ccc(I)cc4F)n(C)c(=O)c(C)c32)c1 [Trametinib]; conditions: max 1 µM
In short: as §1

Cell Line	IC50, cell viability 72 h [1] [µM]	IC50, cell viability 72 h [2] [µM]	IC50, cell viability 72 h [3] [µM]	IC50, cell viability 72 h [4] [µM]	IC50, cell viability 72 h [5] [µM]	IC50, cell viability 72 h [6] [µM]	IC50, cell viability 72 h [7] [µM]	IC50, cell viability 72 h [8] [µM]	IC50, cell viability 72 h [9] [µM]	IC50, cell viability 72 h [10] [µM]	IC50, cell viability 72 h [11] [µM]	IC50, cell viability 72 h [12] [µM]	IC50, cell viability 72 h [13] [µM]	IC50, cell viability 72 h [14] [µM]	IC50, cell viability 72 h [15] [µM]	IC50, cell viability 72 h [16] [µM]	IC50, cell viability 72 h [17] [µM]	IC50, cell viability 72 h [18] [µM]	IC50, cell viability 72 h [19] [µM]	IC50, cell viability 72 h [20] [µM]	IC50, cell viability 72 h [21] [µM]	IC50, cell viability 72 h [22] [µM]	IC50, cell viability 72 h [23] [µM]	IC50, cell viability 72 h [24] [µM]	IC50, cell viability 72 h [25] [µM]	IC50, cell viability 72 h [26] [µM]	IC50, cell viability 72 h [27] [µM]	IC50, cell viability 72 h [28] [µM]	IC50, cell viability 72 h [29] [µM]	IC50, cell viability 72 h [30] [µM]	IC50, cell viability 72 h [31] [µM]	IC50, cell viability 72 h [32] [µM]	IC50, cell viability 72 h [33] [µM]	IC50, cell viability 72 h [34] [µM]	IC50, cell viability 72 h [35] [µM]
KYAE-1 (Esophageal Adenocarcinoma)	> 0.001	> 10	> 1	> 10	> 2	> 20	> 0.3	> 10	> 1	> 1	> 3	> 1	> 1	> 10	0.829	> 10	1.88	> 10	> 3	> 3	> 10	4.58	> 5	> 1	> 10	> 10	> 0.3	> 10	> 0.3	> 10	> 10	> 1	3.34	> 10	> 1
LNZTA3WT4 (Low Grade Glioma)	> 0.001	> 10	> 1	> 10	> 2	> 20	> 0.3	> 10	> 1	> 1	0.141	> 1	> 1	> 10	0.0187	4.5	> 10	> 10	> 3	0.624	> 10	> 10	> 5	> 1	4.63	> 10	0.269	> 10	0.0997	> 10	> 10	> 1	> 10	> 10	> 1
LOXIMVI (Melanoma)	> 0.001	> 10	> 1	> 10	0.135	> 20	> 0.3	> 10	0.111	> 1	0.0268	0.294	> 1	> 10	0.0896	3.27	2.17	6.35	> 3	1.37	1.5	> 10	0.145	> 1	> 10	> 10	0.0289	5.35	0.0589	> 10	9.91	> 1	> 10	> 10	0.0178
MPP-89 (Mesothelioma)	> 0.001	> 10	> 1	> 10	0.558	> 20	> 0.3	> 10	> 1	> 1	0.842	> 1	> 1	> 10	0.0672	> 10	> 10	> 10	> 3	1.55	> 10	> 10	> 5	> 1	> 10	> 10	0.172	9.37	> 0.3	> 10	> 10	> 1	> 10	> 10	> 1
NCI-H524 (Small Cell Lung Carcinoma)	> 0.001	> 10	> 1	> 10	> 2	> 20	> 0.3	> 10	0.278	> 1	0.00326	> 1	0.0223	> 10	0.0236	4.37	8.08	2.55	> 3	0.974	> 10	> 10	> 5	> 1	> 10	> 10	0.133	0.0305	0.189	> 10	> 10	0.415	> 10	> 10	> 1
